In ChEMBL document CHEMBL5154926, “Discovery of a Novel Series of Imipridone Compounds as Homo sapiens Caseinolytic Protease P Agonists with Potent Antitumor Activities In Vitro and In Vivo” (J Med Chem, 2022):
Converted amounts (≈) assume the structure as drawn.

What was measured:
[1] = Acute toxicity in BALB/c mouse assessed as change in ALT level in blood at 100 mg/kg, ig administered as single dose measured after 14 days; assay type: organism-based; details: in vivo, po, 336 h, time 14 day
[2] = Clearance in Sprague-Dawley rat plasma at 5 mg/kg, iv after 0.083 to 24 hrs by LC-MS analysis; assay type: ADME, organism-based; details: time 0.083-24 hrs
in vivo [3] = details: Sprague-Dawley, rat, plasma, po, 15 mg/kg
[4] = Acute toxicity in BALB/c mouse assessed as body weight loss at 100 mg/kg, ig administered as single dose measured every day for 14 days; assay type: organism-based; details: in vivo, po, 336 h, time 14 day
[5] = Acute toxicity in BALB/c mouse assessed as pathological damage in spleen at 100 mg/kg, ig administered as single dose measured after 14 days by hematoxylin and eosin staining method; assay type: organism-based; details: in vivo, po, 336 h, time 14 day
in vivo [6] = details: Sprague-Dawley, rat, plasma, iv, 5 mg/kg
[7] = Acute toxicity in BALB/c mouse assessed as change in CKMB level in blood at 100 mg/kg, ig administered as single dose measured after 14 days; assay type: organism-based; details: in vivo, po, 336 h, time 14 day
HCT-116 [8] = assay: Antitumor activity in human HCT-116 cells xenografted in BALB/c nude mouse assessed tumor growth inhibition at 20 mg/kg, po administered twice a week for 19 days and measured every measured every other day; assay type: functional; details: HCT-116, 456 h, time 19 day, read-out: TGI
[9] = Acute toxicity in BALB/c mouse assessed as change in UREA in blood at 100 mg/kg, ig administered as single dose measured after 14 days; assay type: organism-based; details: in vivo, po, 336 h, time 14 day
[10] = Acute toxicity in BALB/c mouse assessed as pathological damage in lung at 100 mg/kg, ig administered as single dose measured after 14 days by hematoxylin and eosin staining method; assay type: organism-based; details: in vivo, po, 336 h, time 14 day
[11] = Toxicity in BALB/c nude mouse xenografted with human HCT-116 cells assessed as body weight loss at 10 mg/kg, po administered twice a week for 19 days and measured every other day; assay type: organism-based; details: in vivo, 456 h, time 19 day
[12] = Oral bioavailability in Sprague-Dawley rat plasma at 15 mg/kg after 0.25 to 24 hrs by LC-MS analysis; assay type: ADME, organism-based; details: time 0.25-24 hrs
HCT-116 [13] = assay: Antitumor activity in human HCT-116 cells xenografted in BALB/c nude mouse assessed tumor growth inhibition at 5 mg/kg, po administered twice a week for 19 days and measured every other day; assay type: functional; details: HCT-116, 456 h, time 19 day, read-out: TGI
[14] = MRT (0 to 24 hrs) in Sprague-Dawley rat plasma at 15 mg/kg, po after 0.25 to 24 hrs by LC-MS analysis; assay type: ADME, organism-based; details: time 0.25-24 hrs
HCT-116 [15] = assay: Antitumor activity in human HCT-116 cells xenografted in BALB/c nude mouse assessed tumor growth inhibition at 10 mg/kg, po administered twice a week for 19 days and measured every other day; assay type: functional; details: HCT-116, 456 h, time 19 day, read-out: TGI
[16] = Acute toxicity in BALB/c mouse assessed as pathological damage in kidney at 100 mg/kg, ig administered as single dose measured after 14 days by hematoxylin and eosin staining method; assay type: organism-based; details: in vivo, po, 336 h, time 14 day
[17] = Acute toxicity in BALB/c mouse assessed as pathological damage in liver at 100 mg/kg, ig administered as single dose measured after 14 days by hematoxylin and eosin staining method; assay type: organism-based; details: in vivo, po, 336 h, time 14 day
[18] = Terminal half life in Sprague-Dawley rat plasma at 15 mg/kg, po after 0.25 to 24 hrs by LC-MS analysis; assay type: ADME, organism-based; details: time 0.25-24 hrs, read-out: beta t1/2 (converted)
[19] = Tmax in Sprague-Dawley rat plasma at 15 mg/kg, po after 0.25 to 24 hrs by LC-MS analysis; assay type: ADME, organism-based; details: time 0.25-24 hrs
[20] = Cmax in Sprague-Dawley rat plasma at 5 mg/kg, iv after 0.083 to 24 hrs by LC-MS analysis; assay type: ADME, organism-based; parameters: dose 5 mg/kg, time 0.083-24 hrs, route iv
[21] = Acute toxicity in BALB/c mouse assessed as adverse effect at 100 mg/kg, ig administered as single dose measured every day for 14 days; assay type: organism-based; details: in vivo, po, 336 h, time 14 day
[22] = Acute toxicity in BALB/c mouse assessed as pathological damage in heart at 100 mg/kg, ig administered as single dose measured after 14 days by hematoxylin and eosin staining method; assay type: organism-based; details: in vivo, po, 336 h, time 14 day
[23] = Terminal half life in Sprague-Dawley rat plasma at 5 mg/kg, iv after 0.083 to 24 hrs by LC-MS analysis; assay type: ADME, organism-based; details: time 0.083-24 hrs, read-out: beta t1/2 (converted)
[24] = Toxicity in BALB/c nude mouse xenografted with human HCT-116 cells assessed as body weight loss at 40 mg/kg, po administered twice a week for 19 days and measured every other day; assay type: organism-based; details: in vivo, 456 h, time 19 day
[25] = Acute toxicity in BALB/c mouse assessed as change in CREA level in blood at 100 mg/kg, ig administered as single dose measured after 14 days; assay type: organism-based; details: in vivo, po, 336 h, time 14 day
[26] = MRT (0 to 24 hrs) in Sprague-Dawley rat plasma at 5 mg/kg, iv after 0.083 to 24 hrs by LC-MS analysis; assay type: ADME, organism-based; details: time 0.083-24 hrs
[27] = Acute toxicity in BALB/c mouse assessed as change in AST level in blood at 100 mg/kg, ig administered as single dose measured after 14 days; assay type: organism-based; details: in vivo, po, 336 h, time 14 day
[28] = Toxicity in BALB/c nude mouse xenografted with human HCT-116 cells assessed as body weight loss at 5 mg/kg, po administered twice a week for 19 days and measured every other day; assay type: organism-based; details: in vivo, 456 h, time 19 day
[29] = Cmax in Sprague-Dawley rat plasma at 15 mg/kg, po after 0.25 to 24 hrs by LC-MS analysis; assay type: ADME, organism-based; parameters: time lower 0.25 hrs, dose 15 mg/kg, time upper 24 hrs, route po
HCT-116 [30] = assay: Induction of apoptosis in human HCT-116 cells assessed as late apoptotic cells at 25 nM incubated for 48 hrs by Annexin V/FITC staining based flow cytometric method (reference value: 1.57%); assay type: functional
HCT-116 [31] = assay: Induction of apoptosis in human HCT-116 cells assessed as viable cells at 25 nM incubated for 48 hrs by Annexin V/FITC staining based flow cytometric method (reference value: 97.66%); assay type: functional; details: read-out: Activity
[32] = Stability in rat liver microsomes assessed as half life at 1.5 uM measured upto 90 mins in presence of NADPH by LC/MS analysis; assay type: ADME, Microsome; details: 1.5 h
HCT-116 [33] = assay: Induction of apoptosis in human HCT-116 cells assessed as early apoptotic cells at 25 nM incubated for 48 hrs by Annexin V/FITC staining based flow cytometric method (reference value: […]); assay type: functional
HCT-116 [34] = assay: Induction of apoptosis in human HCT-116 cells assessed as viable cells at 12.5 nM incubated for 48 hrs by Annexin V/FITC staining based flow cytometric method (reference value: 97.66%); assay type: functional; details: read-out: Activity
HCT-116 [35] = assay: Induction of ROS generation in human HCT-116 cells at 12.5 nM measured after 24 hrs by DHE staining based fluorescence assay (reference value: […] %); assay type: functional
[36] = Stability in human liver microsomes assessed as half life at 1.5 uM measured upto 90 mins in presence of NADPH by LC/MS analysis; assay type: ADME, Microsome; details: human liver microsomes
[37] = biological target: Voltage-gated inwardly rectifying potassium channel KCNH2 (Homo sapiens, UniProt Q12809); assay: Inhibition of hERG expressed in HEK293 cells by automated patch clamp assay; assay type: toxicity, cell-based
HCT-116 [38] = assay: Induction of apoptosis in human HCT-116 cells assessed as necrotic cells at 50 nM incubated for 48 hrs by Annexin V/FITC staining based flow cytometric method (reference value: 0.05%); assay type: functional
HCT-116 [39] = assay: Induction of apoptosis in human HCT-116 cells assessed as early apoptotic cells at 12.5 nM incubated for 48 hrs by Annexin V/FITC staining based flow cytometric method (reference value: […]); assay type: functional
[40] = Stability in human liver microsomes assessed as intrinsic clearance at 1.5 uM measured upto 90 mins in presence of NADPH by LC/MS analysis; assay type: ADME, Microsome; details: read-out: CLH
HCT-116 [41] = assay: Induction of apoptosis in human HCT-116 cells assessed as late apoptotic cells at 12.5 nM incubated for 48 hrs by Annexin V/FITC staining based flow cytometric method (reference value: 1.57%); assay type: functional
[42] = 1-octanol/water partition coefficient, log P of the compound agitated for 4 hrs measured by shake flask assay based HPLC analysis; assay type: physicochemical
HCT-116 [43] = assay: Induction of ROS generation in human HCT-116 cells at 50 nM measured after 24 hrs by DHE staining based fluorescence assay (reference value: […] %); assay type: functional
HCT-116 [44] = assay: Induction of apoptosis in human HCT-116 cells assessed as necrotic cells at 12.5 nM incubated for 48 hrs by Annexin V/FITC staining based flow cytometric method (reference value: 0.05%); assay type: functional
HCT-116 [45] = assay: Induction of apoptosis in human HCT-116 cells assessed as necrotic cells at 25 nM incubated for 48 hrs by Annexin V/FITC staining based flow cytometric method (reference value: 0.05%); assay type: functional
HCT-116 [46] = assay: Induction of cell cycle arrest in human HCT-116 cells assessed as accumulation of cells at G0/G1 phase at 12.5 nM incubated for 48 hrs propidium iodide based flow cytometric analysis (reference value: 26 %); assay type: functional
HCT-116 [47] = assay: Induction of cell cycle arrest in human HCT-116 cells assessed as accumulation of cells at G0/G1 phase at 50 nM incubated for 48 hrs propidium iodide based flow cytometric analysis (reference value: 26 %); assay type: functional
HCT-116 [48] = assay: Induction of ROS generation in human HCT-116 cells at 25 nM measured after 24 hrs by DHE staining based fluorescence assay (reference value: […] %); assay type: functional
HCT-116 [49] = assay: Induction of apoptosis in human HCT-116 cells assessed as early apoptotic cells at 50 nM incubated for 48 hrs by Annexin V/FITC staining based flow cytometric method (reference value: […]); assay type: functional
[50] = Aqueous solubility of the compound agitated for 24 hrs by HPLC analysis; assay type: physicochemical; details: buffer
HCT-116 [51] = assay: Induction of apoptosis in human HCT-116 cells assessed as viable cells at 50 nM incubated for 48 hrs by Annexin V/FITC staining based flow cytometric method (reference value: 97.66%); assay type: functional; details: read-out: Activity
HCT-116 [52] = assay: Induction of apoptosis in human HCT-116 cells assessed as late apoptotic cells at 50 nM incubated for 48 hrs by Annexin V/FITC staining based flow cytometric method (reference value: 1.57%); assay type: functional

Sequence of Voltage-gated inwardly rectifying potassium channel KCNH2 (Q12809 whole entry): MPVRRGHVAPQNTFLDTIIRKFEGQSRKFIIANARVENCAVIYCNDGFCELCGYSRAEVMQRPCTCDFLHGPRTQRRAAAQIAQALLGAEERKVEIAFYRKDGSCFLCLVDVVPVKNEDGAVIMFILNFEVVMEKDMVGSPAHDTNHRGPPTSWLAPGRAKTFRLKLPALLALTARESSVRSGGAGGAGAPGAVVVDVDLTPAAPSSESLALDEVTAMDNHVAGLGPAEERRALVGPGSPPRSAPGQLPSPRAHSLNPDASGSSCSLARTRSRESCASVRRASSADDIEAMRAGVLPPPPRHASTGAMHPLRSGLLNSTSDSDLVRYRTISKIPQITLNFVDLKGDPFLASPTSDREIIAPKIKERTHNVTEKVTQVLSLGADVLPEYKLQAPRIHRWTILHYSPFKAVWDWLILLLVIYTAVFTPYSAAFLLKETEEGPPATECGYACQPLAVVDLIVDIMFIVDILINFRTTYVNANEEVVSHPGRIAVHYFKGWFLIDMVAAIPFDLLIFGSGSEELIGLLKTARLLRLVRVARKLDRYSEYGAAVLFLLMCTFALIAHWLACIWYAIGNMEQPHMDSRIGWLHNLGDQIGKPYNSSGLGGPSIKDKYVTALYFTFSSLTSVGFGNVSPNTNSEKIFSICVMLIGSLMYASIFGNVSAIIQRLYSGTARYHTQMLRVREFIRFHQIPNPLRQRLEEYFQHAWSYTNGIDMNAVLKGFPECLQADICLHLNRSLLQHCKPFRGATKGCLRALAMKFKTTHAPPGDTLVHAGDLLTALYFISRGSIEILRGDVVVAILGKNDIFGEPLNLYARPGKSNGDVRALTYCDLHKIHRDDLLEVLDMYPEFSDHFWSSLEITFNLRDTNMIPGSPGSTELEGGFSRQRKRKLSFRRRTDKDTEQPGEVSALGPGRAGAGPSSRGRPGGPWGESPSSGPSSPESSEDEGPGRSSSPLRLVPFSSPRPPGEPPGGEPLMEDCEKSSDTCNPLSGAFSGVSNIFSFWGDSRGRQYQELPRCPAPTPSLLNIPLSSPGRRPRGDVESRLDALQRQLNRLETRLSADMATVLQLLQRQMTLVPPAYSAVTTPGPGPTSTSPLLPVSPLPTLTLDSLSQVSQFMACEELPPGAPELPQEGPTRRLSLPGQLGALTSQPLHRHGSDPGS

For Cl.Cl.O.O=c1nc2n(c3c1CN(Cc1ccccc1)CC3)CCN2Cc1ccc(F)c(Br)c1, the Activity [1] was “Non-Toxic”, the clearance [2] was 35.7 mL/min/kg and the AUC(0-t) (in vivo [3]) was 4270 ng·h/mL. The Activity [4] was “Non-Toxic”, the Activity [5] was “Non-Toxic” and the AUC(0-t) (in vivo [6]) was 2330 ng·h/mL. The Activity [7] was “Non-Toxic”, the inhibition in vivo at 20 mg/kg (HCT-116 [8]) was 69% and the Activity [9] was “Non-Toxic”. The Activity [10] was “Non-Toxic”, the Activity [11] was 23.9% and the bioavailability [12] was 61.1%. The inhibition in vivo at 5 mg/kg (HCT-116 [13]) was 56%, the MRT last [14] was 77.4 min and the inhibition in vivo at 10 mg/kg (HCT-116 [15]) was 60%. The Activity [16] was “Non-Toxic”, the Activity [17] was “Non-Toxic” and the half-life [18] was 61.8 min. For the same compound, the Tmax [19] was 19.8 min, the Cmax [20] was 4010 ng/mL and the Activity [21] was “Non-Toxic”. For the same compound, the Activity [22] was “Non-Toxic”, the half-life [23] was 76.2 min and the Activity [24] was 25%. For the same compound, the Activity [25] was “Non-Toxic”, the MRT last [26] was 33.6 min and the Activity [27] was “Non-Toxic”. The Activity [28] was 27.7% and the Cmax [29] was 2790 ng/mL.

O=c1nc2n(c3c1CN(Cc1ccccc1)CC3)CCN2Cc1ccc(F)c(Br)c1 showed an Activity (HCT-116 [30]) of 3%, a viability at […] (HCT-116 [31]) of 94.7% and a t1/2 [32] of 16.1 min. For the same compound, the Activity (HCT-116 [33]) was 2.14%, the viability at 0.0125 µM (HCT-116 [34]) was 95.8% and the Activity (HCT-116 [35]) was 99.46%. The half-life at 1.5 µM [36] was 13 min, the IC50 [37] was 4.91 µM and the Activity (HCT-116 [38]) was 0.16%. It also gave an Activity (HCT-116 [39]) of 1.27%, a CLint scaled at 1.5 µM [40] of 134 mL/min/kg and an Activity (HCT-116 [41]) of 2.82%. The logP at 4 h [42] was 3.21, the Activity (HCT-116 [43]) was 99.4% and the Activity (HCT-116 [44]) was 0.07%. For the same compound, the Activity (HCT-116 [45]) was 0.12%, the Activity (HCT-116 [46]) was 40% and the Activity (HCT-116 [47]) was 55%. The Activity (HCT-116 [48]) was 97.9%, the Activity (HCT-116 [49]) was 3.16% and the solubility at 24 h [50] was 100 µM (≈ 47.1 µg/mL). It also gave a viability at 0.05 µM (HCT-116 [51]) of 91.6% and an Activity (HCT-116 [52]) of 5.12%.
